Data from patent US20230391760A1, “HETEROCYCLIC GLP-1 AGONISTS” (Gasherbrum Bio, Inc., priority 2020, published 2023).

target: GLP-1 Receptor (Homo sapiens, UniProt P43220); experiment: GLP-1R agonist cAMP stimulation assay (HEK293/GLP1R/CRE-LUC cells, cAMP dynamic 2 Kit); format: cell-based; conditions: HEK293/CRE-Luc cell line stably expressing the GLP-1 Receptor, 30 min at 37° C.
In short: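 HEK293 cells stably expressing human GLP-1R with CRE-luciferase, 1000 cells/well in DPBS with 0.5 mM IBMX and 0.1% BSA, treated with compound in 1/2-log serial dilution for 30 min at 37 °C. cAMP then detected by HTRF (cAMP-d2 plus anti-cAMP cryptate), 1 h at room temperature in the dark.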

Sequence of GLP-1 Receptor (P43220 24-463, species assumed): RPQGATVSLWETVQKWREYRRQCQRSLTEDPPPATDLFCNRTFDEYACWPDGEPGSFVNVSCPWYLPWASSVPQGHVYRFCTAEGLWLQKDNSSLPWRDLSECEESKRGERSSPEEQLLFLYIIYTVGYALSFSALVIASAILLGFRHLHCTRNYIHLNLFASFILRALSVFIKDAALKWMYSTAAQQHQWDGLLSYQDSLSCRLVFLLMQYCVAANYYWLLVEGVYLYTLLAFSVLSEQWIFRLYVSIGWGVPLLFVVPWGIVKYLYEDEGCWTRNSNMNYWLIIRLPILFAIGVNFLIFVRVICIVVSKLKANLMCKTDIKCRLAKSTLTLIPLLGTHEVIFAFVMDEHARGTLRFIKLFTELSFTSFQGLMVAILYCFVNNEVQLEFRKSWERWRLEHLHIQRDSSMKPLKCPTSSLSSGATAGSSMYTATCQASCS

Compound | EC50 [nM]
COCCC(=O)Nc1ccc2c(c1)nc(CN1CCC(c3cccc(OCc4ccc(Cl)cc4F)n3)CC1)n2C[C@@H]1CCO1 [Compound 107a, (S)—N-(2-((4-(6-((4-chloro-2-fluorobenzyl)oxy)pyridin-2-yl)piperidin-1-yl)methyl)-1-(oxetan-2-ylmethyl)-1H-benzo[d]imidazol-5-yl)-3-methoxypropanamide] | 0.337
Fc1cc(C(F)(F)F)ccc1COc1cccc(C2CCN(Cc3nc4cc(-c5nnc(C(F)(F)F)[nH]5)ncc4n3C[C@@H]3CCO3)CC2)n1 [Compound 497a, 2-{[2-fluoro-4-(trifluoromethyl)phenyl]methoxy}-6-{1-[(3-{[(2S)-oxetan-2-yl]methyl}-6-[5-(trifluoromethyl)-4H-1,2,4-triazol-3-yl]-3H-imidazo[4,5-c]pyridin-2-yl)methyl]piperidin-4-yl}pyridine] | 0.034
4-[2-(4-chloro-2-fluorophenyl)-2-methyl-2H-1,3-benzodioxol-4-yl]-1-[(3-{[(2S)-oxolan-2-yl]methyl}-6-[5-(trifluoromethyl)-4H-1,2,4-triazol-3-yl]-3H-imidazo[4,5-b]pyridin-2-yl)methyl]piperidine [Compound 247a] | 3.4
Fc1cc(Cl)ccc1COc1cccc(C2CCN(Cc3nc4cc(-c5nnc(C(F)(F)F)[nH]5)ncc4n3C[C@@H]3CCO3)CC2)n1 [Compound 435a, 2-[(4-chloro-2-fluorophenyl)methoxy]-6-{1-[(3-{[(2S)-oxetan-2-yl]methyl}-6-[5-(trifluoromethyl)-4H-1,2,4-triazol-3-yl]-3H-imidazo[4,5-c]pyridin-2-yl)methyl]piperidin-4-yl}pyridine] | 0.018
Cc1nnc(-c2cc3nc(CN4CCC(c5cccc6c5OC[C@@H](c5ccc(Cl)cc5)O6)CC4)n(C[C@@H]4CCO4)c3cn2)[nH]1 [Compound 424a, 4-[(2R)-2-(4-chlorophenyl)-2,3-dihydro-1,4-benzodioxin-5-yl]-1-{[6-(5-methyl-4H-1,2,4-triazol-3-yl)-3-{[(2S)-oxetan-2-yl]methyl}-3H-imidazo[4,5-c]pyridin-2-yl]methyl}piperidine] | 0.13
CO[C@@H](C)Cn1c(CN2CCC(c3cccc4c3OC(C)(c3ccc(Cl)cn3)O4)CC2)nc2cc(-c3noc(=O)[nH]3)ncc21 (stereo partly drawn) [Compound 437a, 3-[2-({4-[2-(5-chloropyridin-2-yl)-2-methyl-2H-1,3-benzodioxol-4-yl]piperidin-1-yl}methyl)-3-[(2S)-2-methoxypropyl]-3H-imidazo[4,5-c]pyridin-6-yl]-4,5-dihydro-1,2,4-oxadiazol-5-one] | 2.7
Fc1cc(Cl)ccc1COc1nc(N2CCN(Cc3nc4cc(-c5nnc(C(F)(F)F)[nH]5)ncc4n3C[C@@H]3CCO3)CC2)ncc1F [Compound 490a, 4-[(4-chloro-2-fluorophenyl)methoxy]-5-fluoro-2-{4-[(3-{[(2S)-oxetan-2-yl]methyl}-6-[5-(trifluoromethyl)-4H-1,2,4-triazol-3-yl]-3H-imidazo[4,5-c]pyridin-2-yl)methyl]piperazin-1-yl}pyrimidine] | 0.086
Fc1cc(Cl)ccc1COc1cccc(N2CCN(Cc3nc4cc(-c5nnc(C(F)(F)F)[nH]5)nnc4n3C[C@@H]3CCO3)CC2)n1 [Compound 492a, 1-{6-[(4-chloro-2-fluorophenyl)methoxy]pyridin-2-yl}-4-[(7-{[(2S)-oxetan-2-yl]methyl}-3-[5-(trifluoromethyl)-4H-1,2,4-triazol-3-yl]-7H-imidazo[4,5-c]pyridazin-6-yl)methyl]piperazine] | 0.084
CNc1c(Nc2ccc3c(c2)nc(CN2CCC(c4cccc(OCc5ccc(Cl)cc5F)n4)CC2)n3C[C@@H]2CCO2)c(=O)c1=O [Compound 208a, 3-({2-[(4-{6-[(4-chloro-2-fluorophenyl)methoxy]pyridin-2-yl}piperidin-1-yl)methyl]-1-{[(2S)-oxetan-2-yl]methyl}-1H-1,3-benzodiazol-5-yl}amino)-4-(methylamino)cyclobut-3-ene-1,2-dione] | 1.8
Cc1cnc(-c2ccc3c(c2)nc(CN2CCC(c4cccc5c4O[C@@](C)(c4ccc(Cl)cc4F)O5)CC2)n3C[C@@H]2CCO2)nc1 [Compound 236a, 2-((4-((S)-2-(4-chloro-2-fluorophenyl)-2-methylbenzo[d][1,3]dioxol-4-yl)piperidin-1-yl)methyl)-5-(5-methylpyrimidin-2-yl)-1-(((S)-oxetan-2-yl)methyl)-1H-benzo[d]imidazole] | 2
CC1(c2ccc(Cl)cc2F)Oc2cccc(C3CCN(Cc4nc5cc(-c6noc(=O)[nH]6)ccc5n4C[C@@H]4CCO4)CC3)c2O1 (mixture of isomers) [Compound 239a, 3-(2-((4-(2-(4-chloro-2-fluorophenyl)-2-methylbenzo[d][1,3]dioxol-4-yl)piperidin-1-yl)methyl)-1-(((S)-oxetan-2-yl)methyl)-1H-benzo[d]imidazol-5-yl)-1,2,4-oxadiazol-5(4H)-one] | 0.071
O=C(Nc1ccc2c(c1)nc(CN1CCC(c3cccc(OCc4ccc(Cl)cc4F)n3)CC1)n2C[C@@H]1CCO1)C1CCC2(CCC2)CO1 (stereo partly drawn) [Compound 197a, N-{2-[(4-{6-[(4-chloro-2-fluorophenyl)methoxy]pyridin-2-yl}piperidin-1-yl)methyl]-1-{[(2S)-oxetan-2-yl]methyl}-1H-1,3-benzodiazol-5-yl}-6-oxaspiro[3.5]nonane-7-carboxamide] | 4.3
O=c1[nH]c(-c2cnc3c(c2)nc(CN2CC=C(c4ccc(F)c(OCc5ccc(Cl)cc5F)c4)CC2)n3C[C@@H]2CCO2)no1 [Compound 293a, 3-{2-[(4-{3-[(4-chloro-2-fluorophenyl)methoxy]-4-fluorophenyl}-1,2,3,6-tetrahydropyridin-1-yl)methyl]-3-{[(2S)-oxetan-2-yl]methyl}-3H-imidazo[4,5-b]pyridin-6-yl}-4,5-dihydro-1,2,4-oxadiazol-5-one] | 2.8
CC1(c2ccc(Cl)cn2)Oc2cccc(C3=CCN(Cc4nc5cc(-c6nnc(C7CC7)[nH]6)cnc5n4C[C@@H]4CCO4)CC3)c2O1 (stereo partly drawn) [Compound 416a, 5-chloro-2-[4-(1-{[6-(5-cyclopropyl-4H-1,2,4-triazol-3-yl)-3-{[(2S)-oxetan-2-yl]methyl}-3H-imidazo[4,5-b]pyridin-2-yl]methyl}-1,2,3,6-tetrahydropyridin-4-yl)-2-methyl-2H-1,3-benzodioxol-2-yl]pyridine] | 14
O=C(Nc1ccc2c(c1)nc(CN1CCC(c3cccc(OCc4ccc(Cl)cc4F)n3)CC1)n2C[C@@H]1CCO1)C1COCCC1(F)F (stereo partly drawn) [Compound 189a, N-{2-[(4-{6-[(4-chloro-2-fluorophenyl)methoxy]pyridin-2-yl}piperidin-1-yl)methyl]-1-{[(2S)-oxetan-2-yl]methyl}-1H-1,3-benzodiazol-5-yl}-4,4-difluorooxane-3-carboxamide] | 0.82
O=C(Nc1ccc2c(c1)nc(CN1CCC(c3cccc(OCc4ccc(Cl)cc4F)n3)CC1)n2C[C@@H]1CCO1)C(F)n1cccn1 (stereo partly drawn) [Compound 194a, N-{2-[(4-{6-[(4-chloro-2-fluorophenyl)methoxy]pyridin-2-yl}piperidin-1-yl)methyl]-1-{[(2S)-oxetan-2-yl]methyl}-1H-1,3-benzodiazol-5-yl}-2-fluoro-2-(1H-pyrazol-1-yl)acetamide] | 0.47
C[C@]1(c2ccc(Cl)cc2F)Oc2cccc(C3CCN(Cc4nc5cc(-c6nnc(C(F)(F)F)[nH]6)nnc5n4C[C@H]4CCOC4)CC3)c2O1 [Compound 475a, 4-[(2S)-2-(4-chloro-2-fluorophenyl)-2-methyl-2H-1,3-benzodioxol-4-yl]-1-[(7-{[(3R)-oxolan-3-yl]methyl}-3-[5-(trifluoromethyl)-4H-1,2,4-triazol-3-yl]-7H-imidazo[4,5-c]pyridazin-6-yl)methyl]piperidine] | 0.41
O=C(Nc1ccc2c(c1)nc(CN1CCC(c3cccc(OCc4ccc(Cl)cc4F)n3)CC1)n2C[C@@H]1CCO1)C1CCCC1 [Compound 151a, N-{2-[(4-{6-[(4-chloro-2-fluorophenyl)methoxy]pyridin-2-yl}piperidin-1-yl)methyl]-1-{[(2S)-oxetan-2-yl]methyl}-1H-1,3-benzodiazol-5-yl}cyclopentanecarboxamide] | 0.8
CC1(c2ccc(Cl)cc2)Oc2cccc(C3CCN(Cc4nc5cc(-c6nnc(C(F)(F)F)[nH]6)ccc5n4CC4(C#N)CC4)CC3)c2O1 (stereo not shown) [Compound 446, 1-{[2-({4-[2-(4-chlorophenyl)-2-methyl-2H-1,3-benzodioxol-4-yl]piperidin-1-yl}methyl)-5-[5-(trifluoromethyl)-4H-1,2,4-triazol-3-yl]-1H-1,3-benzodiazol-1-yl]methyl}cyclopropane-1-carbonitrile] | 0.12
Fc1cc(Cl)ccc1COc1nccc(C2CCN(Cc3nc4cc(-c5nnc(C(F)(F)F)[nH]5)ncc4n3C[C@@H]3CCO3)CC2)n1 [Compound 505a, 2-[(4-chloro-2-fluorophenyl)methoxy]-4-{1-[(3-{[(2S)-oxetan-2-yl]methyl}-6-[5-(trifluoromethyl)-4H-1,2,4-triazol-3-yl]-3H-imidazo[4,5-c]pyridin-2-yl)methyl]piperidin-4-yl}pyrimidine] | 0.045
CC1(c2ccc(Cl)cn2)Oc2cccc(C3CCN(Cc4nc5cc(-c6noc(=O)[nH]6)cnc5n4C[C@@H]4CCO4)CC3)c2O1 (stereo partly drawn) [Compound 332a, 3-[2-({4-[2-(5-chloropyridin-2-yl)-2-methyl-2H-1,3-benzodioxol-4-yl]piperidin-1-yl}methyl)-3-{[(2S)-oxetan-2-yl]methyl}-3H-imidazo[4,5-b]pyridin-6-yl]-4,5-dihydro-1,2,4-oxadiazol-5-one] | 1.6
CC1(c2ccc(C#N)cc2Cl)Oc2cccc(C3CCN(Cc4nc5cc(-c6nnc(C(F)(F)F)[nH]6)ccc5n4C[C@@H]4CCO4)CC3)c2O1 (stereo partly drawn) [Compound 353a, 3-chloro-4-(2-methyl-4-{1-[(1-{[(2S)-oxetan-2-yl]methyl}-5-[5-(trifluoromethyl)-4H-1,2,4-triazol-3-yl]-1H-1,3-benzodiazol-2-yl)methyl]piperidin-4-yl}-2H-1,3-benzodioxol-2-yl)benzonitrile] | 0.026
